Laboratory results: US20110002859A1, “CHEWING GUM CONTAINING EUCALYPTUS EXTRACT” (LOTTE CO., LTD., priority 2008, published 2011)
In brackets after ≈: the same amount, converted by molar mass.

Assays:
[1] = test system: Prevotella melaninogenica ATCC25845; experiment: In vitro antibacterial activity, minimum inhibitory concentration (MIC); format: cell-based; settings: 37° C., anaerobic, 24 to 48 hours, turbidity 550 nm; read-out: MIC, bacterial strain c
Protocol: (§1) In vitro antibacterial activities of Macrocarpal A, macrocarpal B, and macrocarpal C were evaluated according to the following procedure. First, to 25 ml of a medium, added were 2.5 ml of various pre-cultured periodontopathic bacteria described below, and the whole was mixed well. A sample solution was prepared by diluting in two stages a sample stock solution on a 96-well plate by using a diluent. Within each well of the 96-well plate, 100 μl of the sample solution and 100 μl of a bacterial solution were mixed, and cultivated at 37° C. under an anaerobic condition for 24 to 48 hours. The turbidity (550 nm) of each well was measured with a microplate reader, the growth of the bacterium was assessed, and its minimum inhibitory concentration (MIC) was determined. […] (Used Bacterial Strain) c: Prevotella melaninogenica ATCC25845

[2] = test system: Porphyromonas gingivalis ATCC33277; experiment: as above; format: cell-based; settings: 37° C., anaerobic, 24 to 48 hours, turbidity 550 nm; read-out: MIC, bacterial strain a
Protocol: as §1, with “a: Porphyromonas gingivalis ATCC33277” for “c: Prevotella melaninogenica ATCC25845”

[3] = test system: Prevotella intermedia ATCC25611; experiment: as above; format: cell-based; settings: 37° C., anaerobic, 24 to 48 hours, turbidity 550 nm; read-out: MIC, bacterial strain b
Protocol: as §1, with “b:” for “c:”, “intermedia ATCC25611” for “melaninogenica ATCC25845”

[4] = test system: periodontopathic bacteria; experiment: In vitro growth prevention of all tested periodontopathic bacteria; format: cell-based; settings: all four strains of Table 1
Protocol: In vitro antibacterial activities of Macrocarpal A, macrocarpal B, and macrocarpal C were evaluated according to the following procedure. First, to 25 ml of a medium, added were 2.5 ml of various pre-cultured periodontopathic bacteria described below, and the whole was mixed well. A sample solution was prepared by diluting in two stages a sample stock solution on a 96-well plate by using a diluent. Within each well of the 96-well plate, 100 μl of the sample solution and 100 μl of a bacterial solution were mixed, and cultivated at 37° C. under an anaerobic condition for 24 to 48 hours. The turbidity (550 nm) of each well was measured with a microplate reader, the growth of the bacterium was assessed, and its minimum inhibitory concentration (MIC) was determined.

[5] = test system: Capnocytophaga ochracea ATCC33596; experiment: In vitro antibacterial activity, minimum inhibitory concentration (MIC); format: cell-based; settings: 37° C., anaerobic, 24 to 48 hours, turbidity 550 nm; read-out: MIC, bacterial strain d
Protocol: as §1, with “d: Capnocytophaga ochracea ATCC33596” for “c: Prevotella melaninogenica ATCC25845”

[6] = test system: periodontopathic bacteria; settings: background art; cited from earlier work

| Compound | MIC [1] [µg/mL] | MIC [2] [µg/mL] | MIC [3] [µg/mL] | concentration capable of preventing periodontopathic bacteria from growing up [4] [µg/mL] | MIC [5] [µg/mL] | antibacterial activities against periodontopathic bacteria [6] |
| --- | --- | --- | --- | --- | --- | --- |
| CC(C)C[C@@H](c1c(O)c(C=O)c(O)c(C=O)c1O)[C@@]1(C)CC[C@@H]2[C@@H]1[C@H]1[C@@H](CC[C@@]2(C)O)C1(C)C [Macrocarpal A, macrocarpal A] | 0.78 (≈ 1.65 µM) | 0.195 (≈ 0.413 µM) | 0.195 (≈ 0.413 µM) | 0.78 | 0.39 (≈ 0.825 µM) |  |
| CC(C)C[C@H](c1c(O)c(C=O)c(O)c(C=O)c1O)[C@@]1(C)CC[C@@H]2[C@@H]1[C@H]1[C@@H](CC[C@@]2(C)O)C1(C)C [Macrocarpal B, macrocarpal B] | 3.13 (≈ 6.62 µM) | 0.78 (≈ 1.65 µM) | 1.58 (≈ 3.34 µM) | 3.13 | 1.56 (≈ 3.3 µM) |  |
| C=C1CC[C@@H]2[C@H]([C@H]3[C@H]1CC[C@]3(C)[C@@H](CC(C)C)c1c(O)c(C=O)c(O)c(C=O)c1O)C2(C)C [Macrocarpal C, macrocarpal C] | 1.58 (≈ 3.48 µM) | 0.195 (≈ 0.429 µM) | 0.39 (≈ 0.858 µM) | 1.58 | 0.39 (≈ 0.858 µM) |  |
| CC12CCC(CC1)C(C)(C)O2 [cineole] |  |  |  |  |  | weak antibacterial activities |
